Test results reported in US20130302409A1, “METHODS AND COMPOSITIONS FOR CANCER IMMUNOTHERAPY” (priority 2010, published 2013).

System: 4T1 tumor (highly metastatic, syngeneic mammary cancer cell line)
Assay: Survival of tumor-bearing mice after cyclophosphamide, intratumoral nanoparticles and cryoablation or resection
Assay type: in vivo, BALB/c mice
Conditions: Cy 200 mg/kg intraperitoneally day 14 plus cryoablation day 16, compared with Cy plus surgical resection of the subcutaneous nodule; FIG. 3A
Experimental: The particles are suspended with a pipette for about one minute. […] The particles in PBS should not be used if kept for more than 12 hours. The particles are lightly sonicated with a bath sonicator, or vortexed to make an even suspension. The particles should not sit idly in the syringe as they will settle and then clog the syringe. Ideally, the injection should be made within 10-30 seconds after drawing the well-mixed nanoparticle suspension into the syringe. For mice with a tumor of 5-8 mm diameter, 100 mg of particles is injected directly into the tumor in a volume of 0.1 ml.
Groups of 10 BALB/c mice each received a subcutaneous inoculation of 10^4 cells of the highly metastatic, syngeneic mammary cancer cell line on the flank.

O=P1(N(CCCl)CCCl)NCCCO1 (stereo not shown) [cyclophosphamide]
survival: did not survive significantly longer
